# Data published in US10463690B2, “Method and compositions for treating cancerous tumors” (priority 2016, dated 2019).
# Key:
# [1] = placed on rats in a 60% of the body 3rd degree burn; cited from earlier work
# tumor = settings: animal experiments; cited from earlier work
# [2] = type: in vivo, Mice (SK1IPYMT 4913×SK1FVB)
# Excerpt: The purpose was to see how and where the test product spread throughout the body. Mice were euthanized so that internal cavity could be examined. Organs were cut in half for inspection of the extent of saturation.
structure (smiles),measurement,setting,value
"[O][Cl+][O-] [ClO2, Chlorine dioxide]",toxicity,[1],no toxicity was indicated
"NCCCC(N)(C(=O)O)C(F)F (stereo not shown) [DFMO, difuoromethylornithine]",effect on tumor growth,tumor,reduced tumor growth
"CN(C)c1ccc2nc3ccc(=[N+](C)C)cc-3sc2c1 [methylene blue, Methylene blue]",distribution of dye after injection into kidney,[2]; kidney injection,The entire kidney got saturated and the dye got into the urine but did not spread throughout the body
same,distribution of dye after injection into liver,[2]; liver injection,The dye did not spread past the injection site in the liver
